Source: the Bradley open melting point set (2014)
Several values for one entry are separate records, joined by “and”; a condition that tells them apart may be missing. Equal entries are not always repeated. Structures can show the parent of a compound that is named as a salt.

Row | SMILES | melting point
1 | CCCCCCCCCCCCS[C@H](C(=O)Nc1cc(C)c(O)c(C)c1C)c1ccccc1 [eflucimibe] | -144 °C
2 | CCCCCCCC/C=C/CCCCCCCC(=O)O [elaidic acid] | 43 °C
3 | O=C1[C@@H]2[C@H](C(=O)N1O)[C@@H]1C=C[C@H]2C1 [endo-n-hydroxy-5-norbornene-2,3-dicarboximide] | 168 °C
4 | CN[C@@H](C)[C@H](O)c1ccccc1 [ephedrine] | 34 °C
5 | O=C(O)CSCC(=O)NC1CCSC1=O (stereo not given) [erdosteine] | 156 °C
6 | CCCCCCCC/C=CCCCCCCCCCCCC(=O)O [erucic acid] | 31 °C
7 | CC[C@H]1OC(=O)[C@H](C)[C@@H](O[C@H]2C[C@@](C)(OC)[C@@H](O)[C@H](C)O2)[C@H](C)[C@@H](O[C@@H]2O[C@H](C)C[C@H](N(C)C)[C@H]2O)[C@](C)(O)C[C@@H](C)C(=O)[C@H](C)[C@@H](O)[C@]1(C)O [erythromycin] | 191 °C
8 | C[C@]12CC[C@@H]3c4ccc(O)cc4CC[C@H]3[C@@H]1CC[C@@H]2O [estradiol] [listing 1 of 2 here] | 176 °C and 178 °C
9 | C[C@]12CC[C@@H]3c4ccc(O)cc4CC[C@H]3[C@@H]1CC[C@@H]2O [estradiol] [listing 2 of 2 here] | 176 °C
10 | CCS [ethanethiol] | -148 °C
11 | CCOC(=O)c1csnn1 [ethyl 1,2,3-thiadiazole-4-carboxylate] | 84 °C
12 | CCOC(=O)c1cnn(-c2ccccc2)c1 [ethyl 1-phenyl-1h-pyrazole-4-carboxylate] | 98 °C
13 | CCOC(=O)c1c(O)cc(C)nc1O [ethyl 2,4-dihydroxy-6-methylnicotinate] | 212 °C
14 | CCOC(=O)c1csc(C)n1 [ethyl 2-methylthiazole-4-carboxylate] | 55 °C
15 | CCOC(=O)c1ccccc1N [ethyl anthranilate] | 15 °C
16 | CCOC(=O)CCl [ethyl chloroacetate] | -26 °C
17 | CCN=C=S [ethyl isothiocyanate] | -6 °C
18 | CCOC(=O)Cc1ccccc1 [ethyl phenylacetate] | -29 °C
19 | CCC#N [ethyl_cyanide] | -93 °C

Next, values leading:

Row | melting point | SMILES
20 | 144 °C | CCOC(=O)c1c[nH]nc1C(F)(F)F [ethyl 3-trifluoromethyl-1h-pyrazole-4-carboxylate]
21 | 31 °C | CCOC(=O)c1ccc(CBr)cc1 [ethyl 4-(bromomethyl)benzoate]
22 | 117 °C | CCOC(=O)c1ccc(O)cc1 [ethyl 4-hydroxybenzoate] [listing 1 of 2 here]
23 | 117 °C | CCOC(=O)c1ccc(O)cc1 [ethyl 4-hydroxybenzoate] [listing 2 of 2 here]
24 | 100 °C | CCOC(=O)c1cnn(C)c1N [ethyl 5-amino-1-methyl-1h-pyrazole-4-carboxylate]
25 | 101 °C | CCOC(=O)c1ccc([N+](=O)[O-])o1 [ethyl 5-nitro-2-furoate]
26 | 50 °C | CCOC=C(C#N)C(=O)OCC [ethyl (ethoxymethylene)cyanoacetate]
27 | 49 °C | CCOC(N)=O [ethyl carbamate]
28 | 7 °C | CCOC(=O)/C=C/c1ccccc1 [ethyl cinnamate]
29 | -81 °C | CCOC=O [ethyl formate]
30 | -66 °C | CCCCCCC(=O)OCC [ethyl heptanoate]
31 | -106 °C | CCSC [ethyl methyl sulfide]
32 | 9 °C | CCOC(=O)c1cccnc1 [ethyl nicotinate]
33 | -44 °C | CCCCCCCCC(=O)OCC [ethyl nonanoate]
34 | -47 °C | CCCCCCCC(=O)OCC [ethyl octanoate]
35 | 67 °C | CCOC(=O)C(=O)Nc1ccccc1 [ethyl oxanilate]
36 | 116 °C | CCOC(=O)c1ccc(O)cc1 [ethyl p-hydroxybenzoate]
37 | -58 °C | CCOC(=O)C(C)=O [ethyl pyruvate]
38 | 89 °C | CCOC(=O)c1ccc(N)cc1 [ethyl-4-aminobenzoate (benzocaine)]
39 | 89 °C | CCOC(=O)c1ccc(N)cc1 [ethyl_4-aminobenzoate]
40 | -99 °C | CCOC(=O)CC(C)C [ethyl_isovalerate]
